Tests used:
Test in all cases: KINOMEscan competition binding
Details in all cases: compound 10.0 µM
[1] = molecular target: STK17B (human) (UniProt O94768)
[2] = molecular target: HIPK3 (human) (UniProt Q9H422)
[3] = molecular target: HUNK (human) (UniProt P57058)
[4] = molecular target: CaMK1 (human) (UniProt Q14012)
[5] = molecular target: PI4KB (human) (UniProt Q9UBF8)
[6] = molecular target: CLK3 (human) (UniProt P49761)
[7] = molecular target: MTOR (human) (UniProt P42345)
[8] = molecular target: TEK (human) (UniProt Q02763)
[9] = molecular target: MAP2K1 (human) (UniProt Q02750)
Sequence of MAP2K1 (human) (Q02750 whole entry, looked up): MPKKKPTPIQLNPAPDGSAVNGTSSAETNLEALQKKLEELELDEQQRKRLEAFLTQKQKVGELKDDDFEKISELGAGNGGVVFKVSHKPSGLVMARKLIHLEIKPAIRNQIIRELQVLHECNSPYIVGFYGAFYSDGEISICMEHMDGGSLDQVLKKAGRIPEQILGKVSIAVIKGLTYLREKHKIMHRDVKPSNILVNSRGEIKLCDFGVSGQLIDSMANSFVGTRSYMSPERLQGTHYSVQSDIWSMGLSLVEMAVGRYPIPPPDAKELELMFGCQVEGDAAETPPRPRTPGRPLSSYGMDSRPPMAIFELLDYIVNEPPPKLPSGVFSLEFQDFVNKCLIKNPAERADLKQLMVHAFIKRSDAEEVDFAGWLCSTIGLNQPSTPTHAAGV

[10] = molecular target: DCLK3 (human) (UniProt Q9C098)
Sequence of DCLK3 (human) (Q9C098 whole entry, looked up): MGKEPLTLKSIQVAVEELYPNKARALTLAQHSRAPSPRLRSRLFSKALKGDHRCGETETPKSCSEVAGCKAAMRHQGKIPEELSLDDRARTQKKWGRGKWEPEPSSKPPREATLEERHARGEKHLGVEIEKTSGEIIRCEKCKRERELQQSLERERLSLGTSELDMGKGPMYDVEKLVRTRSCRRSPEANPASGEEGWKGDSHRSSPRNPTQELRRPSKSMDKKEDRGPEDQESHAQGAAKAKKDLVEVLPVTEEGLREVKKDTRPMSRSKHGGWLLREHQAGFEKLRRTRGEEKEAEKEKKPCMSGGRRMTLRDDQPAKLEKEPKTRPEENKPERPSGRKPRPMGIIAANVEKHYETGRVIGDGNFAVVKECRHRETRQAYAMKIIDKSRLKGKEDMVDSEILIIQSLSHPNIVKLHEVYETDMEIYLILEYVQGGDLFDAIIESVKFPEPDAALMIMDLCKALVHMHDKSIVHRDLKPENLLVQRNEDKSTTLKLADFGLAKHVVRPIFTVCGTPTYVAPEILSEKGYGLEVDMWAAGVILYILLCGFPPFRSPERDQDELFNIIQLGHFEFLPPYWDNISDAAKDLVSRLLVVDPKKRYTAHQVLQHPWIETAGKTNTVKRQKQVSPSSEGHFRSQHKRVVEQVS

[11] = test system: RET (human), P07949 [V804M]
Sequence of RET (human), P07949 [V804M] (P07949 whole entry V804M, looked up): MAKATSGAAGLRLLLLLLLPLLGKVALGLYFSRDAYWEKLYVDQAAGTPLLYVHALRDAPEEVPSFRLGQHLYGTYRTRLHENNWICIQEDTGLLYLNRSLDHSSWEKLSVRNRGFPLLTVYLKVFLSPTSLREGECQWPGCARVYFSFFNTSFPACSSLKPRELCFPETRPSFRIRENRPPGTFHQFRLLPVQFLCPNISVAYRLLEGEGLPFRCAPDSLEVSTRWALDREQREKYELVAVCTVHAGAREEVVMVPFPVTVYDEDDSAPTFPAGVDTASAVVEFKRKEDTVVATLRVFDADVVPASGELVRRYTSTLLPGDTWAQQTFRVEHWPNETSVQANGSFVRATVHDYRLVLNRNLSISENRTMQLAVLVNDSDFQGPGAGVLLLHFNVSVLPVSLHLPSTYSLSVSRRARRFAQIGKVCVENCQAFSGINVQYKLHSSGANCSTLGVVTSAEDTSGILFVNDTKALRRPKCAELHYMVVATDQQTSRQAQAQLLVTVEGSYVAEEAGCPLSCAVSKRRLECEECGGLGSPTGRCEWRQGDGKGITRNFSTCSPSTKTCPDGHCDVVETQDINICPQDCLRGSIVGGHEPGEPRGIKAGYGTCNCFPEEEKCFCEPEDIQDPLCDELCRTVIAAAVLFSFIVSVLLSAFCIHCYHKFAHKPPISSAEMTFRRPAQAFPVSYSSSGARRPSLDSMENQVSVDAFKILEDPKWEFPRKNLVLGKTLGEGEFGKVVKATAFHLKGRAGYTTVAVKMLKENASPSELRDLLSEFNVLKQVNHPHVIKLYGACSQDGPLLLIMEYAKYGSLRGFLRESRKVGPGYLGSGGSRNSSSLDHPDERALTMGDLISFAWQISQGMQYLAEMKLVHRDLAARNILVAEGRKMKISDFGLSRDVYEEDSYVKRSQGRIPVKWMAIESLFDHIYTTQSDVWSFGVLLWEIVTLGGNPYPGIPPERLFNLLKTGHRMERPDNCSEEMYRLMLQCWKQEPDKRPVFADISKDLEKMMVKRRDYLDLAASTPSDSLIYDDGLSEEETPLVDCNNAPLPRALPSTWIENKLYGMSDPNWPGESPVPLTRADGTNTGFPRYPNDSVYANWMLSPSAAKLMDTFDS

[12] = molecular target: SBK1 (human) (UniProt Q52WX2)
[13] = molecular target: SYK (human) (UniProt P43405)
[14] = molecular target: DYRK2 (human) (UniProt Q92630)
[15] = molecular target: EPHA8 (human) (UniProt P29322)
Sequence of EPHA8 (human) (P29322 whole entry, looked up): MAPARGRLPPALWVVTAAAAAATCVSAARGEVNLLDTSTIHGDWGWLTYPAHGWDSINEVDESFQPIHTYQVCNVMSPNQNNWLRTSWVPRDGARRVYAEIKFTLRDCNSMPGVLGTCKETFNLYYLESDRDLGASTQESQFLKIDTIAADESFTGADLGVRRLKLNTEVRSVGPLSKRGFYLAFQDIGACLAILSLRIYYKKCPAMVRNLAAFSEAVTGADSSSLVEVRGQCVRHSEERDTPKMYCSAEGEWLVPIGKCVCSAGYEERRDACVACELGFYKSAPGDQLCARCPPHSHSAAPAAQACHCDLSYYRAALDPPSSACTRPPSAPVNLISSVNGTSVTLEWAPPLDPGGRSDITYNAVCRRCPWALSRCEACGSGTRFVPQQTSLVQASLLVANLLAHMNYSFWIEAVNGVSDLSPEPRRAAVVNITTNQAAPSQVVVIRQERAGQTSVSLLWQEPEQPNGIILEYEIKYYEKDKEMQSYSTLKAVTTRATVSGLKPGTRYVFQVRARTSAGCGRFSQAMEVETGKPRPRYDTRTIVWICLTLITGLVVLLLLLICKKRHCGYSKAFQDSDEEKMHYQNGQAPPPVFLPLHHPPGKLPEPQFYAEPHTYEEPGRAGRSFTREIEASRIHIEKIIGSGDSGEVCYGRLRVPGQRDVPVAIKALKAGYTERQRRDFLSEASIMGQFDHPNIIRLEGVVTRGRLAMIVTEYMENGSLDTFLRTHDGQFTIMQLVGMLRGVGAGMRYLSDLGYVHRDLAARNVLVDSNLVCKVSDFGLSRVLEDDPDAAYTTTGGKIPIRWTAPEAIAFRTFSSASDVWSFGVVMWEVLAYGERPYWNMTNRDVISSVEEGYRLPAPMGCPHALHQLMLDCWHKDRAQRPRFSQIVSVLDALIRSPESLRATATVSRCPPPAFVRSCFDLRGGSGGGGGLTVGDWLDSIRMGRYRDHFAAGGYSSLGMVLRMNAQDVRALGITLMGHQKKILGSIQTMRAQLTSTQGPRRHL

[16] = molecular target: NEK6 (human) (UniProt Q9HC98)
[17] = molecular target: RPS6KB1 (human) (UniProt P23443)
[18] = molecular target: RPS6KA1 KD1 (human) (UniProt Q15418)
[19] = molecular target: TESK1 (human) (UniProt Q15569)
[20] = molecular target: INSRR (human) (UniProt P14616)
[21] = molecular target: ERBB4 (human) (UniProt Q15303)
[22] = molecular target: ACVR2B (human) (UniProt Q13705)
[23] = molecular target: BTK (human) (UniProt Q06187)
[24] = molecular target: TLK1 (human) (UniProt Q9UKI8)
[25] = molecular target: AXL (human) (UniProt P30530)
[26] = molecular target: ERBB2 (human) (UniProt P04626)
[27] = molecular target: GSK3B (human) (UniProt P49841)
[28] = molecular target: MAP3K3 (human) (UniProt Q99759)
Sequence of MAP3K3 (human) (Q99759 whole entry, looked up): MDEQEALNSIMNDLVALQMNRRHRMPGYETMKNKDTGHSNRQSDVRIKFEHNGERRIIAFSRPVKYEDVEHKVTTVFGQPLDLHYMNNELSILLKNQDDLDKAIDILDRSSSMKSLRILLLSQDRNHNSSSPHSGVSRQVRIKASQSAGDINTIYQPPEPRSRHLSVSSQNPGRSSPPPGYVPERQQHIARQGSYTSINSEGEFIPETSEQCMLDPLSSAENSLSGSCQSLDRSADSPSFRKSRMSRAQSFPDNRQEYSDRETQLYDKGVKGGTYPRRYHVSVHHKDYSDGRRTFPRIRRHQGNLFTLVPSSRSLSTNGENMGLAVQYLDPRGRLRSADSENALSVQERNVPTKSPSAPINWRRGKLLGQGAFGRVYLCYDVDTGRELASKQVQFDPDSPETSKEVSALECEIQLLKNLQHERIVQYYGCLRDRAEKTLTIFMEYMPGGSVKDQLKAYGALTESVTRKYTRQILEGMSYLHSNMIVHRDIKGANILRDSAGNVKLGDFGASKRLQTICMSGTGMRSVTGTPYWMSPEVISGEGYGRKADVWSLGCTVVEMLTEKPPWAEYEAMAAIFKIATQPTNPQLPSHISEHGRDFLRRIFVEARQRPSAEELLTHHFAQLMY

[29] = molecular target: STK35 (human) (UniProt Q8TDR2)
[30] = molecular target: NTRK3 (human) (UniProt Q16288)
[31] = molecular target: PAK2 (human) (UniProt Q13177)
[32] = molecular target: CDK7 (human) (UniProt P50613)
Sequence of CDK7 (human) (P50613 whole entry, looked up): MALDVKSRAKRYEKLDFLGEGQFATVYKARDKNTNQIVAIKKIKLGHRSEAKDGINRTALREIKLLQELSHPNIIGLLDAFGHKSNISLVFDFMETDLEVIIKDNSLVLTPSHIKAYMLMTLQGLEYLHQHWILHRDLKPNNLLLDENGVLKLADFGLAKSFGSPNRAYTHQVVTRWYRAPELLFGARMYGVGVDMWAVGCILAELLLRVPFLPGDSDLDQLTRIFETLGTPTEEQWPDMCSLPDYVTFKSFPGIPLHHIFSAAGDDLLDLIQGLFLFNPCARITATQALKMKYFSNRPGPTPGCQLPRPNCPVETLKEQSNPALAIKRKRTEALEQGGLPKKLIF

[33] = molecular target: IGF1R (human) (UniProt P08069)
[34] = molecular target: CDKL3 (human) (UniProt Q8IVW4)
[35] = molecular target: EPHB1 (human) (UniProt P54762)
[36] = molecular target: GAK (human) (UniProt O14976)
[37] = molecular target: MAP2K6 (human) (UniProt P52564)
[38] = molecular target: ABL2 (human) (UniProt P42684)
[39] = molecular target: CDK14 (human) (UniProt O94921)
[40] = molecular target: PRKD1 (human) (UniProt Q15139)
[41] = molecular target: PAK6 (human) (UniProt Q9NQU5)
Sequence of PAK6 (human) (Q9NQU5 whole entry, looked up): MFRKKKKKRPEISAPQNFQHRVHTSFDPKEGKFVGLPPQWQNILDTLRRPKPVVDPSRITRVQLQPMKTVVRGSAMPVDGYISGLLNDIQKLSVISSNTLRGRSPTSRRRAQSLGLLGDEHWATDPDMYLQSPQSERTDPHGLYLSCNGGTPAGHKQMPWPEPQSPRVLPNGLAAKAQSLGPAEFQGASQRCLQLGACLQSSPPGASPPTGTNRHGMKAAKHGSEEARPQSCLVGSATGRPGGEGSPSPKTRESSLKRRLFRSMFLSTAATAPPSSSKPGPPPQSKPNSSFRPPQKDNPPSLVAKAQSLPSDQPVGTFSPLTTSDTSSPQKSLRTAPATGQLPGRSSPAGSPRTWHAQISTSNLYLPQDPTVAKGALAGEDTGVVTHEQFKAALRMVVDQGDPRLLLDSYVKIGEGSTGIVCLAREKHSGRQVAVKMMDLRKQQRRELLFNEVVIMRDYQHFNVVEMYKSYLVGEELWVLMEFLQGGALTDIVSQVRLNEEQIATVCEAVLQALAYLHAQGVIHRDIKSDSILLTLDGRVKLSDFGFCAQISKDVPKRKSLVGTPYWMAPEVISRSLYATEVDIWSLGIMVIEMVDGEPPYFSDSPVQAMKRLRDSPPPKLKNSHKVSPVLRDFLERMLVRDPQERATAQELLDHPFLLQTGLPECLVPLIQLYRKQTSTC

`O=C(Nc1cccc(Nc2ncc(Br)c(NCCc3cnc[nH]3)n2)c1)N1CCCC1` gave a kinase still bound, per cent of control [1] of 2.4%, a kinase still bound, per cent of control [2] of 3.7% and a kinase still bound, per cent of control [3] of 73%. For the same compound, the kinase still bound, per cent of control [4] was 11%, the kinase still bound, per cent of control [5] was 35% and the kinase still bound, per cent of control [6] was 74%. The kinase still bound, per cent of control [7] was 87%, the kinase still bound, per cent of control [8] was 12% and the kinase still bound, per cent of control [9] was 0.15%. For the same compound, the kinase still bound, per cent of control [10] was 48%, the kinase still bound, per cent of control [11] was 0.05% and the kinase still bound, per cent of control [12] was 3.6%. The kinase still bound, per cent of control [13] was 0.95%, the kinase still bound, per cent of control [14] was 3.4% and the kinase still bound, per cent of control [15] was 94%. It also gave a kinase still bound, per cent of control [16] of 0.5%, a kinase still bound, per cent of control [17] of 3.2% and a kinase still bound, per cent of control [18] of 4.3%. For the same compound, the kinase still bound, per cent of control [19] was 99%, the kinase still bound, per cent of control [20] was 4.8% and the kinase still bound, per cent of control [21] was 56%. The kinase still bound, per cent of control [22] was 4.9%, the kinase still bound, per cent of control [23] was 5.2% and the kinase still bound, per cent of control [24] was 37%. It also gave a kinase still bound, per cent of control [25] of 1.2%, a kinase still bound, per cent of control [26] of 88% and a kinase still bound, per cent of control [27] of 44%. It also gave a kinase still bound, per cent of control [28] of 0.3%, a kinase still bound, per cent of control [29] of 67% and a kinase still bound, per cent of control [30] of 2.6%. The kinase still bound, per cent of control [31] was 45%, the kinase still bound, per cent of control [32] was 0.55% and the kinase still bound, per cent of control [33] was 17%. For the same compound, the kinase still bound, per cent of control [34] was 75%, the kinase still bound, per cent of control [35] was 85% and the kinase still bound, per cent of control [36] was 1.4%. The kinase still bound, per cent of control [37] was 22%, the kinase still bound, per cent of control [38] was 7.8% and the kinase still bound, per cent of control [39] was 44%. It also gave a kinase still bound, per cent of control [40] of 0.65% and a kinase still bound, per cent of control [41] of 11%.

`NC(=O)Nc1cc(-c2cccc(F)c2)sc1C(=O)N[C@@H]1CCCNC1` showed a kinase still bound, per cent of control [1] of 2%, a kinase still bound, per cent of control [2] of 12% and a kinase still bound, per cent of control [3] of 68%. For the same compound, the kinase still bound, per cent of control [4] was 2%, the kinase still bound, per cent of control [5] was 100% and the kinase still bound, per cent of control [6] was 62%. It also gave a kinase still bound, per cent of control [7] of 72%, a kinase still bound, per cent of control [8] of 17% and a kinase still bound, per cent of control [9] of 0%. It also gave a kinase still bound, per cent of control [10] of 56%, a kinase still bound, per cent of control [11] of 0% and a kinase still bound, per cent of control [12] of 0%. For the same compound, the kinase still bound, per cent of control [13] was 0.05%, the kinase still bound, per cent of control [14] was 26% and the kinase still bound, per cent of control [15] was 0.4%. The kinase still bound, per cent of control [16] was 89%, the kinase still bound, per cent of control [17] was 6.4% and the kinase still bound, per cent of control [18] was 11%. For the same compound, the kinase still bound, per cent of control [19] was 11%, the kinase still bound, per cent of control [20] was 22% and the kinase still bound, per cent of control [21] was 4.4%. For the same compound, the kinase still bound, per cent of control [22] was 3.8%, the kinase still bound, per cent of control [23] was 0.2% and the kinase still bound, per cent of control [24] was 0.9%. The kinase still bound, per cent of control [25] was 0%, the kinase still bound, per cent of control [26] was 0% and the kinase still bound, per cent of control [27] was 41%. It also gave a kinase still bound, per cent of control [28] of 0%, a kinase still bound, per cent of control [29] of 1.1% and a kinase still bound, per cent of control [30] of 0.2%. The kinase still bound, per cent of control [31] was 16%, the kinase still bound, per cent of control [32] was 4.9% and the kinase still bound, per cent of control [33] was 44%. For the same compound, the kinase still bound, per cent of control [34] was 100%, the kinase still bound, per cent of control [35] was 1.6% and the kinase still bound, per cent of control [36] was 2.9%. The kinase still bound, per cent of control [37] was 3.8%, the kinase still bound, per cent of control [38] was 0.2% and the kinase still bound, per cent of control [39] was 100%. For the same compound, the kinase still bound, per cent of control [40] was 0.3% and the kinase still bound, per cent of control [41] was 0.35%.

From the kinase profiling compilation of Christmann-Franck et al. (2016)
